Experiments:
Test in all cases: relative viability (nuclei count vs DMSO), 5 days (fraction); higher = more cells survive
EKVX = test system: EKVX
Method in brief: (§1)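 Each reported value is a median over duplicate plates. It expresses relative viability: treated-well nuclei count divided by vehicle-well nuclei count. Lung cancer cell lines in 1536-well plates were dosed by pin tool a day after seeding, alone with one drug or with a fixed anchor-drug dose plus five library-drug doses (not always all listed) in √10 steps, and nuclei were counted after 5 days.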

EPLC-272H = test system: EPLC-272H
Method in brief: as §1

H3255 = test system: H3255
Method in brief: as §1

HCC-827 = test system: HCC-827
Method in brief: as §1

HOP-62 = test system: HOP-62
Method in brief: as §1

LCLC-97TM1 = test system: LCLC-97TM1
Method in brief: as §1

LK-2 = test system: LK-2
Method in brief: as §1

LU99A = test system: LU99A
Method in brief: as §1

LXF-289 = test system: LXF-289
Method in brief: as §1

NCI-H1355 = test system: NCI-H1355
Method in brief: as §1

NCI-H1650 = test system: NCI-H1650
Method in brief: as §1

NCI-H1993 = test system: NCI-H1993
Method in brief: as §1

NCI-H2170 = test system: NCI-H2170
Method in brief: as §1

NCI-H2228 = test system: NCI-H2228
Method in brief: as §1

NCI-H2405 = test system: NCI-H2405
Method in brief: as §1

NCI-H3122 = test system: NCI-H3122
Method in brief: as §1

PC-3 [JPC-3] = test system: PC-3 [JPC-3]
Method in brief: as §1

SK-LU-1 = test system: SK-LU-1
Method in brief: as §1

SW 1573 = test system: SW 1573
Method in brief: as §1

UMC-11 = test system: UMC-11
Method in brief: as §1

**Q.** For Cc1csc(=NC2CCCCC2)n1/N=C/c1ccc(O)c(O)c1O [MIM1] + CS(=O)(=O)CCNCc1ccc(-c2ccc3ncnc(Nc4ccc(OCc5cccc(F)c5)c(Cl)c4)c3c2)o1 [Lapatinib] (partner 2 µM), which relative viability (EKVX; first compound 0.2 µM) is on record?
**A.** 0.186

**Q.** And the relative viability (EKVX; first compound 0.6325 µM)?
**A.** 0.221

**Q.** And the relative viability (EKVX; first compound 2 µM)?
**A.** 0.179

**Q.** What about the relative viability (EKVX; first compound 6.325 µM) of the same molecule?
**A.** 0.177

**Q.** What about the relative viability (EKVX; first compound 20 µM) of the same molecule?
**A.** 0.178

**Q.** What about the relative viability (EPLC-272H; first compound 0.2 µM) of the same molecule?
**A.** 0.884

**Q.** And the relative viability (EPLC-272H; first compound 0.6325 µM)?
**A.** 0.886

**Q.** And the relative viability (EPLC-272H; first compound 2 µM)?
**A.** 0.722

**Q.** What about the relative viability (EPLC-272H; first compound 6.325 µM) of the same molecule?
**A.** 0.792

**Q.** What about the relative viability (EPLC-272H; first compound 20 µM) of the same molecule?
**A.** 0.528

**Q.** And the relative viability (H3255; first compound 0.2 µM)?
**A.** 0.274

**Q.** What about the relative viability (H3255; first compound 0.6325 µM) of the same molecule?
**A.** 0.208

**Q.** And the relative viability (H3255; first compound 2 µM)?
**A.** 0.242

**Q.** And the relative viability (H3255; first compound 6.325 µM)?
**A.** 0.22

**Q.** What about the relative viability (H3255; first compound 20 µM) of the same molecule?
**A.** 0.198

**Q.** What about the relative viability (HCC-827; first compound 0.2 µM) of the same molecule?
**A.** 0.21

**Q.** What about the relative viability (HCC-827; first compound 0.6325 µM) of the same molecule?
**A.** 0.181

**Q.** And the relative viability (HCC-827; first compound 2 µM)?
**A.** 0.198

**Q.** And the relative viability (HCC-827; first compound 6.325 µM)?
**A.** 0.179

**Q.** What about the relative viability (HCC-827; first compound 20 µM) of the same molecule?
**A.** 0.248

**Q.** What about the relative viability (HOP-62; first compound 0.2 µM) of the same molecule?
**A.** 0.929

**Q.** And the relative viability (HOP-62; first compound 0.6325 µM)?
**A.** 0.864

**Q.** What about the relative viability (HOP-62; first compound 2 µM) of the same molecule?
**A.** 0.414

**Q.** What about the relative viability (HOP-62; first compound 6.325 µM) of the same molecule?
**A.** 0.843

**Q.** And the relative viability (HOP-62; first compound 20 µM)?
**A.** 0.158

**Q.** What about the relative viability (LCLC-97TM1; first compound 0.2 µM) of the same molecule?
**A.** 1.04

**Q.** What about the relative viability (LCLC-97TM1; first compound 0.6325 µM) of the same molecule?
**A.** 0.526

**Q.** And the relative viability (LCLC-97TM1; first compound 2 µM)?
**A.** 0.539

**Q.** What about the relative viability (LCLC-97TM1; first compound 6.325 µM) of the same molecule?
**A.** 0.353

**Q.** What about the relative viability (LCLC-97TM1; first compound 20 µM) of the same molecule?
**A.** 0.128

**Q.** What about the relative viability (LK-2; first compound 0.2 µM) of the same molecule?
**A.** 0.911

**Q.** What about the relative viability (LK-2; first compound 0.6325 µM) of the same molecule?
**A.** 0.881

**Q.** And the relative viability (LK-2; first compound 2 µM)?
**A.** 0.697

**Q.** And the relative viability (LK-2; first compound 6.325 µM)?
**A.** 0.835

**Q.** What about the relative viability (LK-2; first compound 20 µM) of the same molecule?
**A.** 0.268

**Q.** What about the relative viability (LU99A; first compound 0.2 µM) of the same molecule?
**A.** 1.08

**Q.** What about the relative viability (LU99A; first compound 0.6325 µM) of the same molecule?
**A.** 0.894

**Q.** What about the relative viability (LU99A; first compound 2 µM) of the same molecule?
**A.** 0.779

**Q.** And the relative viability (LU99A; first compound 6.325 µM)?
**A.** 0.915

**Q.** What about the relative viability (LU99A; first compound 20 µM) of the same molecule?
**A.** 0.282

**Q.** What about the relative viability (LXF-289; first compound 0.2 µM) of the same molecule?
**A.** 0.868

**Q.** What about the relative viability (LXF-289; first compound 0.6325 µM) of the same molecule?
**A.** 0.802

**Q.** And the relative viability (LXF-289; first compound 2 µM)?
**A.** 0.895

**Q.** What about the relative viability (LXF-289; first compound 6.325 µM) of the same molecule?
**A.** 0.664

**Q.** What about the relative viability (LXF-289; first compound 20 µM) of the same molecule?
**A.** 0.592

**Q.** And the relative viability (NCI-H1355; first compound 0.2 µM)?
**A.** 0.988

**Q.** What about the relative viability (NCI-H1355; first compound 0.6325 µM) of the same molecule?
**A.** 0.902

**Q.** And the relative viability (NCI-H1355; first compound 2 µM)?
**A.** 0.967

**Q.** What about the relative viability (NCI-H1355; first compound 6.325 µM) of the same molecule?
**A.** 0.738

**Q.** And the relative viability (NCI-H1355; first compound 20 µM)?
**A.** 0.483

**Q.** What about the relative viability (NCI-H1650; first compound 0.2 µM) of the same molecule?
**A.** 0.788

**Q.** What about the relative viability (NCI-H1650; first compound 0.6325 µM) of the same molecule?
**A.** 0.566

**Q.** And the relative viability (NCI-H1650; first compound 2 µM)?
**A.** 0.565

**Q.** What about the relative viability (NCI-H1650; first compound 6.325 µM) of the same molecule?
**A.** 0.204

**Q.** And the relative viability (NCI-H1650; first compound 20 µM)?
**A.** 0.148

**Q.** And the relative viability (NCI-H1993; first compound 0.2 µM)?
**A.** 0.875

**Q.** What about the relative viability (NCI-H1993; first compound 0.6325 µM) of the same molecule?
**A.** 0.871

**Q.** And the relative viability (NCI-H1993; first compound 2 µM)?
**A.** 0.735

**Q.** And the relative viability (NCI-H1993; first compound 6.325 µM)?
**A.** 0.87

**Q.** And the relative viability (NCI-H1993; first compound 20 µM)?
**A.** 0.541

**Q.** What about the relative viability (NCI-H2170; first compound 0.2 µM) of the same molecule?
**A.** 0.282

**Q.** And the relative viability (NCI-H2170; first compound 0.6325 µM)?
**A.** 0.294

**Q.** What about the relative viability (NCI-H2170; first compound 2 µM) of the same molecule?
**A.** 0.26

**Q.** What about the relative viability (NCI-H2170; first compound 6.325 µM) of the same molecule?
**A.** 0.267

**Q.** And the relative viability (NCI-H2170; first compound 20 µM)?
**A.** 0.258

**Q.** What about the relative viability (NCI-H2228; first compound 0.2 µM) of the same molecule?
**A.** 1.25

**Q.** What about the relative viability (NCI-H2228; first compound 0.6325 µM) of the same molecule?
**A.** 0.735

**Q.** What about the relative viability (NCI-H2228; first compound 2 µM) of the same molecule?
**A.** 1.22

**Q.** And the relative viability (NCI-H2228; first compound 6.325 µM)?
**A.** 0.346

**Q.** And the relative viability (NCI-H2228; first compound 20 µM)?
**A.** 0.247

**Q.** What about the relative viability (NCI-H2405; first compound 0.2 µM) of the same molecule?
**A.** 1.13

**Q.** And the relative viability (NCI-H2405; first compound 0.6325 µM)?
**A.** 1.09

**Q.** What about the relative viability (NCI-H2405; first compound 2 µM) of the same molecule?
**A.** 1.12

**Q.** What about the relative viability (NCI-H2405; first compound 6.325 µM) of the same molecule?
**A.** 0.854

**Q.** And the relative viability (NCI-H2405; first compound 20 µM)?
**A.** 0.606

**Q.** And the relative viability (NCI-H3122; first compound 0.2 µM)?
**A.** 1.02

**Q.** What about the relative viability (NCI-H3122; first compound 0.6325 µM) of the same molecule?
**A.** 1.07

**Q.** What about the relative viability (NCI-H3122; first compound 2 µM) of the same molecule?
**A.** 1.01

**Q.** What about the relative viability (NCI-H3122; first compound 6.325 µM) of the same molecule?
**A.** 0.859

**Q.** What about the relative viability (NCI-H3122; first compound 20 µM) of the same molecule?
**A.** 0.304

**Q.** What about the relative viability (PC-3 [JPC-3]; first compound 0.2 µM) of the same molecule?
**A.** 0.486

**Q.** And the relative viability (PC-3 [JPC-3]; first compound 0.6325 µM)?
**A.** 0.505

**Q.** What about the relative viability (PC-3 [JPC-3]; first compound 2 µM) of the same molecule?
**A.** 0.424

**Q.** And the relative viability (PC-3 [JPC-3]; first compound 6.325 µM)?
**A.** 0.45

**Q.** And the relative viability (PC-3 [JPC-3]; first compound 20 µM)?
**A.** 0.46

**Q.** And the relative viability (SK-LU-1; first compound 0.2 µM)?
**A.** 0.825

**Q.** What about the relative viability (SK-LU-1; first compound 0.6325 µM) of the same molecule?
**A.** 0.839

**Q.** And the relative viability (SK-LU-1; first compound 2 µM)?
**A.** 0.791

**Q.** And the relative viability (SK-LU-1; first compound 6.325 µM)?
**A.** 0.72

**Q.** What about the relative viability (SK-LU-1; first compound 20 µM) of the same molecule?
**A.** 0.325

**Q.** And the relative viability (SW 1573; first compound 0.2 µM)?
**A.** 1.07

**Q.** And the relative viability (SW 1573; first compound 0.6325 µM)?
**A.** 1.15

**Q.** And the relative viability (SW 1573; first compound 2 µM)?
**A.** 1.08

**Q.** And the relative viability (SW 1573; first compound 6.325 µM)?
**A.** 0.993

**Q.** What about the relative viability (SW 1573; first compound 20 µM) of the same molecule?
**A.** 0.83

**Q.** What about the relative viability (UMC-11; first compound 0.2 µM) of the same molecule?
**A.** 1.22

**Q.** What about the relative viability (UMC-11; first compound 2 µM) of the same molecule?
**A.** 1.17

**Q.** What about the relative viability (UMC-11; first compound 6.325 µM) of the same molecule?
**A.** 0.664

**Q.** What about the relative viability (UMC-11; first compound 20 µM) of the same molecule?
**A.** 0.181

— the supplement of paper PMC10307832
